Laboratory results published in PubChem BioAssay AID602151 (Vanderbilt Specialized Chemistry Center, 2011).

The compounds below were run against Phospholipase D1 (Homo sapiens) (UniProt Q13393) (assay: cellular phospholipase D1 inhibition IC50 – cell-based, dose response (AID 602151)). Settings: cellular PLD1 activity assay.
Phospholipase D1 (Homo sapiens), sequence (Q13393 whole entry, looked up): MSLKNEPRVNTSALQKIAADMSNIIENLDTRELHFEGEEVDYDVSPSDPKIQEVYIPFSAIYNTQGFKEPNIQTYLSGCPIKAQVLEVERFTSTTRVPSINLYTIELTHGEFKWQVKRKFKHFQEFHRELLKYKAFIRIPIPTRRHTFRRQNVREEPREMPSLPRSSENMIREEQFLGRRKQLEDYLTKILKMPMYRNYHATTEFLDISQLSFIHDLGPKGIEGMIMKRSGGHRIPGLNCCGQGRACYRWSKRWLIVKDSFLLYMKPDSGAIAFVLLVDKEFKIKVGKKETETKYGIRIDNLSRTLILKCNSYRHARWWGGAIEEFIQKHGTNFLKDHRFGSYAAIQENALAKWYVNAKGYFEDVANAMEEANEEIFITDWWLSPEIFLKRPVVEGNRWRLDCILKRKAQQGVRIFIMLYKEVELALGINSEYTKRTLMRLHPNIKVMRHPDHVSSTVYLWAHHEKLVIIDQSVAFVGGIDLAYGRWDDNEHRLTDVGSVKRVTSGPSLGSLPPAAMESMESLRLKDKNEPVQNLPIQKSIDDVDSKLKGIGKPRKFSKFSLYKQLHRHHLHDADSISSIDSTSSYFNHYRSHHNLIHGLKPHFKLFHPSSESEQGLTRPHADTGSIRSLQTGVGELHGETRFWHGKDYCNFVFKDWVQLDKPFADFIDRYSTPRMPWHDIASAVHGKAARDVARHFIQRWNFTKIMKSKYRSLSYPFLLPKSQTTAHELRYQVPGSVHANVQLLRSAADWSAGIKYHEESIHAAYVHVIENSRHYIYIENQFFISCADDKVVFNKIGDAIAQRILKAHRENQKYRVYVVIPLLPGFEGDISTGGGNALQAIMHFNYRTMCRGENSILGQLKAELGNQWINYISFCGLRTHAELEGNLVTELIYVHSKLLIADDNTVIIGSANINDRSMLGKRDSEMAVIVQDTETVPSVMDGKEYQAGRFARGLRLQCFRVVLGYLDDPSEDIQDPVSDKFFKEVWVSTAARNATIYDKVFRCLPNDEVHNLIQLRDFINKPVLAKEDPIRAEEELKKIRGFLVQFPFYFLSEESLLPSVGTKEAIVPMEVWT
Phospholipase D1 (Homo sapiens), sequence (Q13393 whole entry, looked up): as above
`O=C(NCCN1CCC2(CC1)C(=O)NCN2c1ccc(Br)cc1)c1cc2cc(F)ccc2[nH]1` showed an IC50 of 2660 nM. Compound `O=C(NCCN1CCC2(CC1)C(=O)NCN2c1cccc(F)c1)c1cc2cc(F)ccc2[nH]1` has an IC50 of 210 nM. In the case of `O=C(NCCN1CCC2(CC1)C(=O)NCN2c1ccc(F)c(F)c1)c1ccc2ccccc2c1`, the IC50 is reported as 2810 nM. With `O=C(NCCN1CCC2(CC1)C(=O)NCN2c1ccc(Cl)cc1)c1cnc2ccccc2c1` the IC50 was 3500 nM. `O=C(NCCN1CCC2(CC1)C(=O)NCN2c1ccc(F)cc1)c1cnc2ccccc2c1` gave an IC50 of 2000 nM. `O=C(NCCN1CCC2(CC1)C(=O)NCN2c1ccc(F)c(F)c1)c1cc2cc(F)ccc2[nH]1` showed an IC50 of 390 nM. `Cc1cccc(C(=O)N[C@@H](C)CN2CCC3(CC2)C(=O)NCN3c2ccccc2)c1` showed an IC50 of 3400 nM. Compound `O=C(C#Cc1ccccc1)NCCN1CCC2(CC1)C(=O)NCN2c1ccccc1` has an IC50 of 2130 nM. `O=C(NCCN1CCC2(CC1)C(=O)NCN2c1ccccc1)c1cnc2ccccc2c1` gave an IC50 of 1900 nM. Work on `O=C(NCCN1CCC2(CC1)C(=O)NCN2c1ccc(F)c(F)c1)c1cnc2ccccc2c1` yielded an IC50 of 2060 nM. With `COc1cc(C(=O)NCCN2CCC3(CC2)C(=O)NCN3c2ccccc2)ccc1N` the IC50 was 5900 nM. Compound `O=C(NCCN1CCC2(CC1)C(=O)NCN2c1ccc(F)c(F)c1)c1ccc(F)cc1` has an IC50 of 5780 nM. Compound `O=C(NCCN1CCC2(CC1)C(=O)NCN2c1ccc(F)cc1)c1cc2cc(F)ccc2[nH]1` has an IC50 of 290 nM. `O=C(NCCN1CCC2(CC1)C(=O)NCN2c1ccc(Br)cc1)c1ccc2ccccc2c1` was tested, and the IC50 was 5900 nM. With `O=C(NCCN1CCC2(CC1)C(=O)NCN2c1cccc(Cl)c1)c1cc2cc(F)ccc2[nH]1` the IC50 was 250 nM. `C[C@@H](CN1CCC2(CC1)C(=O)NCN2c1ccccc1)NC(=O)c1ccc(F)c(F)c1` showed an IC50 of 150 nM. With `O=C(NCCN1CCC2(CC1)C(=O)NCN2c1cccc(Cl)c1)c1ccc2ccccc2c1` the IC50 was 1200 nM. In the case of `O=C(NCCN1CCC2(CC1)C(=O)NCN2c1ccc(Cl)cc1)c1ccc2ccccc2c1`, the IC50 is reported as 2270 nM. Compound `O=C(NCCN1CCC2(CC1)C(=O)NCN2c1ccc(Br)cc1)c1cnc2ccccc2c1` has an IC50 of 2700 nM. `O=C(NCCN1CCC2(CC1)C(=O)NCN2c1cccc(Cl)c1)c1ccc(F)cc1` gave an IC50 of 3470 nM. For `O=C(NCCN1CCC2(CC1)C(=O)NCN2c1ccc(F)cc1)c1ccc2ccccc2c1`, the IC50 was 1700 nM. `O=C(NCCN1CCC2(CC1)C(=O)NCN2c1cccc(Cl)c1)c1cnc2ccccc2c1` was tested, and the IC50 was 870 nM. Compound `C[C@@H](CN1CCC2(CC1)C(=O)NCN2c1cccc(F)c1)NC(=O)c1ccc2ccccc2c1` has an IC50 of 10 nM. `O=C(NCCN1CCC2(CC1)C(=O)NCN2c1cccc(F)c1)c1cnc2ccccc2c1` was tested, and the IC50 was 2500 nM. `O=C(NCCN1CCC2(CC1)C(=O)NCN2c1ccccc1)c1cc2ccccc2s1` was tested, and the IC50 was 150 nM. `O=C(NCCN1CCC2(CC1)C(=O)NCN2c1ccc(F)cc1)c1ccc(F)cc1` showed an IC50 of 14000 nM. `O=C(NCCN1CCC2(CC1)C(=O)NCN2c1ccc(Cl)cc1)c1cc2cc(F)ccc2[nH]1` was tested, and the IC50 was 335 nM. Work on `O=C(NCCN1CCC2(CC1)C(=O)NCN2c1ccc(Br)cc1)c1ccc(F)cc1` yielded an IC50 of 10000 nM. Work on `O=C(NCCN1CCC2(CC1)C(=O)NCN2c1ccc(Cl)cc1)c1ccc(F)cc1` yielded an IC50 of 5590 nM.
